Details: Liquid, Vibrating tube method

CC(C)OC(C)C [diisopropyl ether]
mass density [kg/m3]
Details	308.15 K	313.15 K	318.15 K	323.15 K	328.15 K	333.15 K
100 kPa	–	702.38	697.07	691.61	686.17	681
5000 kPa	–	709.64	704.53	699.42	694.18	688.97
10000 kPa	–	716.16	711.3	706.46	701.52	696.58
15000 kPa	–	722.17	717.51	712.89	708.19	703.52
20000 kPa	–	727.77	723.27	718.83	714.34	709.85
25000 kPa	–	732.97	728.67	724.38	720.04	715.73
30000 kPa	–	737.92	733.74	729.58	725.37	721.21
35000 kPa	746.63	742.55	738.49	734.45	730.4	726.36
40000 kPa	750.94	746.98	743.01	739.08	735.15	731.23
45000 kPa	755.05	751.2	747.34	743.5	739.67	735.85
50000 kPa	759.01	755.21	751.47	747.72	743.94	740.18
55000 kPa	762.79	759.09	755.41	751.72	748.05	744.38
60000 kPa	766.45	762.83	759.21	755.59	751.94	748.24
65000 kPa	769.97	766.39	762.85	759.26	755.64	752.02

Reference: the NIST ThermoML archive (doi:10.1016/j.fluid.2016.02.009)
